Experimental data as given in ChEMBL document CHEMBL1130668, “Synthesis and evaluation of paclitaxel C7 derivatives: solution phase synthesis of combinatorial libraries” (1998).
Calls of active or inactive are those of the source. The rule behind the calls is not given here.

Legend:
[1] = tested on: MCF7; assay: Effect on microtubule assembly in MCF-7 cells, compared to paclitaxel (0.3 uM), given as ratio of respective ED50; type: functional, Homo sapiens
[2] = Cytotoxicity activity was measured against resistant human breast cancer cell line MCF-7 with respect to ED50 of paclitaxel (2200-3700 nM); type: functional, MCF7
[3] = Cytotoxicity activity was measured against human breast cancer cell line MCF-7 with respect to ED50 of paclitaxel (2 nM); type: functional, MCF7
[4] = tested on: MCF7; assay: Cytotoxicity activity was measured against resistant human breast cancer cell line MCF-7; Did not inhibit proliferation at maximum concentration tested; type: functional; details: read-out: ED50 (the source's name)
[5] = tested on: MCF7; assay: Cytotoxicity activity was measured against human breast cancer cell line MCF-7; Did not inhibit proliferation at maximum concentration tested; type: functional; details: read-out: ED50 (the source's name)
[6] = tested on: MCF7; assay: Cytotoxicity activity was measured against resistant human breast cancer cell line MCF-7 with respect to ED50 of paclitaxel (2200-3700 nM); IA inactive; type: functional, cell-based
[7] = Ratio in tubulin to that of paclitaxel (0.3 uM) in microtubule assembly assay; IA inactive; type: functional
[8] = tested on: MCF7; assay: Cytotoxicity activity was measured against human breast cancer cell line MCF-7 with respect to ED50 of paclitaxel (2 nM); IA inactive; type: functional, cell-based

SMILES	Ratio [1]	Ratio [2]	Ratio [3]	EC50 [4]	EC50 [5]	ED50 [6]	Ratio [7]	ED50 [8]
CC(=O)O[C@H]1C(=O)[C@]2(C)[C@@H](OC(=O)C3CCCC3)C[C@H]3OC[C@@]3(OC(C)=O)[C@H]2[C@H](OC(=O)c2ccccc2)[C@]2(O)C[C@H](OC(=O)[C@H](O)[C@@H](NC(=O)c3ccccc3)c3ccccc3)C(C)=C1C2(C)C [PACLITAXEL C7 CYCLOPENTANECARBOXYLIC ACID ESTER]	1	1.3	37					
CC(=O)O[C@H]1C(=O)[C@]2(C)[C@@H](OC(=O)c3ccco3)C[C@H]3OC[C@@]3(OC(C)=O)[C@H]2[C@H](OC(=O)c2ccccc2)[C@]2(O)C[C@H](OC(=O)[C@H](O)[C@@H](NC(=O)c3ccccc3)c3ccccc3)C(C)=C1C2(C)C	22	1	27					
CC(=O)O[C@H]1C(=O)[C@]2(C)[C@@H](OC(=O)c3ccc([N+](=O)[O-])o3)C[C@H]3OC[C@@]3(OC(C)=O)[C@H]2[C@H](OC(=O)c2ccccc2)[C@]2(O)C[C@H](OC(=O)[C@H](O)[C@@H](NC(=O)c3ccccc3)c3ccccc3)C(C)=C1C2(C)C	8.7		12	> 5 µM				
C/C=C/C(=O)O[C@H]1C[C@H]2OC[C@@]2(OC(C)=O)[C@H]2[C@H](OC(=O)c3ccccc3)[C@]3(O)C[C@H](OC(=O)[C@H](O)[C@@H](NC(=O)c4ccccc4)c4ccccc4)C(C)=C([C@@H](OC(C)=O)C(=O)[C@]12C)C3(C)C [PACLITAXEL C7 CROTONIC ACID ESTER]	6.7			> 5 µM	> 80 nM			
CC(=O)O[C@H]1C(=O)[C@]2(C)[C@@H](OC(=O)c3cnc(Cl)c(Cl)c3)C[C@H]3OC[C@@]3(OC(C)=O)[C@H]2[C@H](OC(=O)c2ccccc2)[C@]2(O)C[C@H](OC(=O)[C@H](O)[C@@H](NC(=O)c3ccccc3)c3ccccc3)C(C)=C1C2(C)C						inactive	inactive	inactive
CCCCCCCCCCCCC(=O)O[C@H]1C[C@H]2OC[C@@]2(OC(C)=O)[C@H]2[C@H](OC(=O)c3ccccc3)[C@]3(O)C[C@H](OC(=O)[C@H](O)[C@@H](NC(=O)c4ccccc4)c4ccccc4)C(C)=C([C@@H](OC(C)=O)C(=O)[C@]12C)C3(C)C						inactive	inactive	inactive
CC(=O)O[C@H]1C(=O)[C@]2(C)[C@@H](OC(=O)C3CC3)C[C@H]3OC[C@@]3(OC(C)=O)[C@H]2[C@H](OC(=O)c2ccccc2)[C@]2(O)C[C@H](OC(=O)[C@H](O)[C@@H](NC(=O)c3ccccc3)c3ccccc3)C(C)=C1C2(C)C [PACLITAXEL C7 CYCLOPROPANECARBOXYLIC ACID ESTER]	22		35	> 5 µM				
CC(=O)O[C@H]1C(=O)[C@]2(C)[C@@H](OC(C)=O)C[C@H]3OC[C@@]3(OC(C)=O)[C@H]2[C@H](OC(=O)c2ccccc2)[C@]2(O)C[C@H](OC(=O)[C@H](O)[C@@H](NC(=O)c3ccccc3)c3ccccc3)C(C)=C1C2(C)C [PACLITAXEL C7 ACETYLCARBOXYLIC ACID ESTER]	0.7	0.7	8					
CC(=O)O[C@H]1C(=O)[C@]2(C)[C@@H](OC(=O)c3ccc(Cl)cc3)C[C@H]3OC[C@@]3(OC(C)=O)[C@H]2[C@H](OC(=O)c2ccccc2)[C@]2(O)C[C@H](OC(=O)[C@H](O)[C@@H](NC(=O)c3ccccc3)c3ccccc3)C(C)=C1C2(C)C	13	1.6			> 80 nM			
CC(=O)OCC(=O)O[C@H]1C[C@H]2OC[C@@]2(OC(C)=O)[C@H]2[C@H](OC(=O)c3ccccc3)[C@]3(O)C[C@H](OC(=O)[C@H](O)[C@@H](NC(=O)c4ccccc4)c4ccccc4)C(C)=C([C@@H](OC(C)=O)C(=O)[C@]12C)C3(C)C [PACLITAXEL C7 ACETOXYACETIC ACID ESTER]	1.7	1.8	17					
CC(=O)O[C@H]1C(=O)[C@]2(C)[C@@H](OC(=O)c3ccccc3)C[C@H]3OC[C@@]3(OC(C)=O)[C@H]2[C@H](OC(=O)c2ccccc2)[C@]2(O)C[C@H](OC(=O)[C@H](O)[C@@H](NC(=O)c3ccccc3)c3ccccc3)C(C)=C1C2(C)C [PACLITAXEL C7 BENZOIC ACID ESTER]	8.3	1.1	14					
CC(=O)O[C@H]1C(=O)[C@]2(C)[C@@H](OC(=O)CC#N)C[C@H]3OC[C@@]3(OC(C)=O)[C@H]2[C@H](OC(=O)c2ccccc2)[C@]2(O)C[C@H](OC(=O)[C@H](O)[C@@H](NC(=O)c3ccccc3)c3ccccc3)C(C)=C1C2(C)C [PACLITAXEL C7 CYANOACETIC ACID ESTER]	1.3		8		> 5000 nM			
CCCCC(=O)O[C@H]1C[C@H]2OC[C@@]2(OC(C)=O)[C@H]2[C@H](OC(=O)c3ccccc3)[C@]3(O)C[C@H](OC(=O)[C@H](O)[C@@H](NC(=O)c4ccccc4)c4ccccc4)C(C)=C([C@@H](OC(C)=O)C(=O)[C@]12C)C3(C)C [PACLITAXEL C7 VALERIC ACID ESTER]	0.7	0.4	10					
CC(=O)O[C@H]1C(=O)[C@]2(C)[C@@H](OC(=O)c3cccn3C)C[C@H]3OC[C@@]3(OC(C)=O)[C@H]2[C@H](OC(=O)c2ccccc2)[C@]2(O)C[C@H](OC(=O)[C@H](O)[C@@H](NC(=O)c3ccccc3)c3ccccc3)C(C)=C1C2(C)C	8.3	1.2			> 80 nM			
CC(=O)O[C@H]1C(=O)[C@]2(C)[C@@H](OC(=O)c3ccc4ccccc4c3)C[C@H]3OC[C@@]3(OC(C)=O)[C@H]2[C@H](OC(=O)c2ccccc2)[C@]2(O)C[C@H](OC(=O)[C@H](O)[C@@H](NC(=O)c3ccccc3)c3ccccc3)C(C)=C1C2(C)C	60			> 5 µM	> 80 nM			
CC(=O)O[C@H]1C(=O)[C@]2(C)[C@@H](OC(=O)c3cccnc3C)C[C@H]3OC[C@@]3(OC(C)=O)[C@H]2[C@H](OC(=O)c2ccccc2)[C@]2(O)C[C@H](OC(=O)[C@H](O)[C@@H](NC(=O)c3ccccc3)c3ccccc3)C(C)=C1C2(C)C	32			> 5 µM	> 80 nM			
CC(=O)O[C@H]1C(=O)[C@]2(C)[C@@H](OC(=O)c3ccc(Cl)c(Cl)c3)C[C@H]3OC[C@@]3(OC(C)=O)[C@H]2[C@H](OC(=O)c2ccccc2)[C@]2(O)C[C@H](OC(=O)[C@H](O)[C@@H](NC(=O)c3ccccc3)c3ccccc3)C(C)=C1C2(C)C	24			> 5 µM	> 80 nM			
COc1ccc(C(=O)O[C@H]2C[C@H]3OC[C@@]3(OC(C)=O)[C@H]3[C@H](OC(=O)c4ccccc4)[C@]4(O)C[C@H](OC(=O)[C@H](O)[C@@H](NC(=O)c5ccccc5)c5ccccc5)C(C)=C([C@@H](OC(C)=O)C(=O)[C@]23C)C4(C)C)cc1	22	2.2			> 80 nM			
CC(=O)O[C@H]1C(=O)[C@]2(C)[C@@H](OC(=O)c3ccsc3)C[C@H]3OC[C@@]3(OC(C)=O)[C@H]2[C@H](OC(=O)c2ccccc2)[C@]2(O)C[C@H](OC(=O)[C@H](O)[C@@H](NC(=O)c3ccccc3)c3ccccc3)C(C)=C1C2(C)C	1.7	1.3			> 80 nM			
CC(=O)O[C@H]1C(=O)[C@]2(C)[C@@H](OC(=O)c3ccc(C)cc3)C[C@H]3OC[C@@]3(OC(C)=O)[C@H]2[C@H](OC(=O)c2ccccc2)[C@]2(O)C[C@H](OC(=O)[C@H](O)[C@@H](NC(=O)c3ccccc3)c3ccccc3)C(C)=C1C2(C)C	25	0.9	31					
CC(=O)O[C@H]1C(=O)[C@]2(C)[C@@H](OC(=O)CCCNC(=O)OC(C)(C)C)C[C@H]3OC[C@@]3(OC(C)=O)[C@H]2[C@H](OC(=O)c2ccccc2)[C@]2(O)C[C@H](OC(=O)[C@H](O)[C@@H](NC(=O)c3ccccc3)c3ccccc3)C(C)=C1C2(C)C	0.7			> 5 µM	> 80 nM			
CC(=O)O[C@H]1C(=O)[C@]2(C)[C@@H](OC(=O)C(C)(C)C)C[C@H]3OC[C@@]3(OC(C)=O)[C@H]2[C@H](OC(=O)c2ccccc2)[C@]2(O)C[C@H](OC(=O)[C@H](O)[C@@H](NC(=O)c3ccccc3)c3ccccc3)C(C)=C1C2(C)C [PACLITAXEL C7 TRIMETHYLACETIC ACID ESTER]	8.3	1.5	3					
COCC(=O)O[C@H]1C[C@H]2OC[C@@]2(OC(C)=O)[C@H]2[C@H](OC(=O)c3ccccc3)[C@]3(O)C[C@H](OC(=O)[C@H](O)[C@@H](NC(=O)c4ccccc4)c4ccccc4)C(C)=C([C@@H](OC(C)=O)C(=O)[C@]12C)C3(C)C [PACLITAXEL C7 METHOXYACETIC ACID ESTER]	1	1.3	14					
CSCC(=O)O[C@H]1C[C@H]2OC[C@@]2(OC(C)=O)[C@H]2[C@H](OC(=O)c3ccccc3)[C@]3(O)C[C@H](OC(=O)[C@H](O)[C@@H](NC(=O)c4ccccc4)c4ccccc4)C(C)=C([C@@H](OC(C)=O)C(=O)[C@]12C)C3(C)C [PACLITAXEL C7 METHYLTHIOACETIC ACID ESTER]	0.7	0.5	10					
CC(=O)O[C@H]1C(=O)[C@]2(C)[C@@H](OC(=O)/C=C/Cl)C[C@H]3OC[C@@]3(OC(C)=O)[C@H]2[C@H](OC(=O)c2ccccc2)[C@]2(O)C[C@H](OC(=O)[C@H](O)[C@@H](NC(=O)c3ccccc3)c3ccccc3)C(C)=C1C2(C)C	5.3			> 5 µM	> 80 nM			
